Assay results as given in publication PMC3615092, “Identification, Design and Bio-Evaluation of Novel Hsp90 Inhibitors by Ligand-Based Virtual Screening” (PLoS ONE, 2013).

Columns and labels:
Hsp70 = target: T1, Hsp70 (Homo sapiens, UniProt P0DMV8); experiment: Hsp70 ATPase activity assay (ADP Hunter Plus); format: biochemical
T1 construct: purchased Enzo Life science ALX-201-214-C025
Description: The following materials were used for the biological evaluation: The PET-28a HSP90 expression vector was constructed. The Ni^2+-nitrilo-triacetic acid (NTA) agarose was purchased from General Electric (USA). […] Isopropyl-1-thio-d-galactopyranoside (IPTG) was purchased from Sigma (St. Lousi. MO). Antibodies of β-Actin, Hsp70, Hsp90, c-Raf, Akt, Src, Phospho-Src, ERK and Her-2 were purchased from Cell Signaling Technology (Danvers, MA). Anti-p-Akt(S473) was purchased from Signalway Antibody (Baltimore, MD). HIF-1α antibody was purchased from R&D systems. The stock solution of Hsp90 was prepared in a 20 mM Tris-Cl buffer with a pH 7.4, and concentration was fixed at 5.0 μM. […] The screened out compounds were purchased from SPECS and dissolved in DMSO (Sigma, St. Louis, MO) to make a final concentration of 10^−2 mol/L and were stored at −20°C. […] The water used in the experiments was thrice-distilled and all other materials were of analytical reagent grade.
Hsp70 ATPase activity was measured using Discover RX ADP Hunter^TM Plus Assay kit assay as descripted in the manufacturer's instructions. Breifly, Hsp70 (3 μM) was incubated with 1 mM ATP in 100 mM Tris pH 7.4 at 37°C for 3 h in the presence or absence of various concentrations of test compounds. ADP generation was measured using Varioskan multimode microplate spectrophotometer (540 nm excitation and 620 nm emission). Fluorescence intensity values measured for Hsp70 without any testing compound was assumed as 100% of enzyme activity. The background reaction rate was measured in a reaction lacking enzyme or substrate and subtracted from the experimental rates.

MCF-7 = experiment: Anti-proliferation MTT assay; format: cell-based; details: Homo sapiens, MCF7, 48 h
Method: (§1) Cell viabilities were measured by a colorimetric assay using 3-(4, 5-dimethylthiaz-ol-2-yl)-2,5-diphenyltetrazoliumbromide (MTT, Sigma, Ltd.) as described previously. Experiments were carried out in triplicate in a parallel manner for each concentration of target compounds and the results were presented as mean ± SE. Control cells were given only culture media. After incubation for 48 h, absorbance (A) was measured at 570 nm. Survival ratio (%) was calculated using the following equation: survival ratio (%) = (Atreatment/Acontrol) × 100%.

HepG2 = experiment: Anti-proliferation MTT assay; format: cell-based; details: Homo sapiens, HepG2, 48 h
Method: as §1

HCT116 = experiment: Anti-proliferation MTT assay; format: cell-based; details: Homo sapiens, HCT-116, 48 h
Method: as §1

A549 = experiment: Anti-proliferation MTT assay; format: cell-based; details: Homo sapiens, A549, 48 h
Method: as §1

MDA-MB-231 = experiment: Anti-proliferation MTT assay; format: cell-based; details: Homo sapiens, MDA-MB-231, 48 h
Method: as §1

SK-BR-3 = experiment: Anti-proliferation MTT assay; format: cell-based; details: Homo sapiens, SK-BR-3, 48 h
Method: as §1

T1 sequence (P0DMV8 whole entry): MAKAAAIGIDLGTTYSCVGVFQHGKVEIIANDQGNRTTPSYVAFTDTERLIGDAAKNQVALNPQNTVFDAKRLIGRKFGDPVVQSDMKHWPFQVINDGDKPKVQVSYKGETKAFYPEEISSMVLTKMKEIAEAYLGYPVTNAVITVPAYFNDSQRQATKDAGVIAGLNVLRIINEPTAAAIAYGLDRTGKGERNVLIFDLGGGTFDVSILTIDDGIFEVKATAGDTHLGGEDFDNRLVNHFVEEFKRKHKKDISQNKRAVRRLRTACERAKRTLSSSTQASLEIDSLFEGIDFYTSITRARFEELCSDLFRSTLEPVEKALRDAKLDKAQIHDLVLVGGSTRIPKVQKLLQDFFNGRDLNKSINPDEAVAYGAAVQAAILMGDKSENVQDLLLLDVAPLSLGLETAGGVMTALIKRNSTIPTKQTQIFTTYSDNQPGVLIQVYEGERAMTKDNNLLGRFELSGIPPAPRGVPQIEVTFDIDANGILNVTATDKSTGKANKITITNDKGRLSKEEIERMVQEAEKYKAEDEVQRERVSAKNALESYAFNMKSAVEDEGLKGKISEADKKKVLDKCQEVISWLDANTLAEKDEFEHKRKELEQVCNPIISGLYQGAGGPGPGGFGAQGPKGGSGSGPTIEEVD

IC50 (Hsp70; ADP Hunter Plus assay): 43.8 ± 4.38 µM
selectivity HSP90 over HSP70 (Hsp70; ratio of IC50 HSP70 / HSP90, ADP fluorescence assay): over 15 times
IC50 (MCF-7): 2010 nM
IC50 (HepG2): 96.6 µM
IC50 (HCT116): 3.63 µM
IC50 (A549): 830 nM
IC50 (MDA-MB-231): 14.6 µM
IC50 (SK-BR-3): 3.32 µM
Compound: COc1ccccc1N1CCN(CC(O)COCCOc2ccc(Br)cc2)CC1 (centres unmarked) [Compound S13]
